pIC50: −log10 of the molar value. Some results are limits rather than exact numbers.

This assay concerns asymmetric di-methyl PABP1 in RKO cells. Kind of assay: RKO methylation assay, In Cell Western (ICW) for asymmetric di-methyl PABP1. In kind it is cell-based. Conditions: Homo sapiens, RKO, Cellular potencies, ICW PABP1me2a. In outline: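 In-cell Western on fixed RKO cells after 48 h compound exposure: anti-asymmetric di-methyl PABP1 signal at 800 nm over DRAQ5 DNA signal at 700 nm. Percent inhibition set between DMSO wells and wells with 20 μM reference compound; IC50 curves fitted in triplicate.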
The molecule `CNCC(O)COc1cccc(-c2nc(NC3CCCN(C(=O)OC)C3)c(C)c(-c3c(C)noc3C)n2)c1` (stereo not drawn) [Example 201-1a] had a negative logarithm of the IC50 (pIC50) of more than 5.30.
Then `CNCC(O)COc1ccc(Cl)c(-c2nc(NC3CC4(CC4)C3)c(C)c(-c3c(C)noc3C)n2)c1` (stereo not drawn) [Example 218-3], with more than 5.30.
The result for `CNCC(O)COc1cccc(-c2nc(-c3cnn(CC(C)C)c3)cc(N(C)CCC#N)n2)c1` (stereo not drawn) [Example 41-1] reads 4.70 to 5.00; that for `CNCC(O)COc1cccc(-c2nc(N[C@@H]3CCOC3)c(C)c(N3CCN(S(C)(=O)=O)CC3)n2)c1` (stereo partly drawn) [Example 434-1a], more than 5.30; that for `CNCC(O)COc1cccc(-c2nc(N[C@H]3C[C@@](C)(OC)C3)c(C)c(-c3c(C)noc3C)n2)c1` (stereo partly drawn) [Example 19-3], more than 5.30.
Then `CNCC(O)COc1cc(Cl)cc(-c2nc(N[C@@H]3CCOC3)cc(-c3c(C)noc3C)n2)c1` (stereo partly drawn) [Example 10-1a], with 4.70 to 5.00.
Molecule `CNCC(O)COc1cccc(-c2nc(NC3CCNC[C@H]3F)c(C)c(-c3c(C)noc3C)n2)c1` (stereo partly drawn) [Example 207-1a] had a pIC50 of more than 5.30.
The result for `CNCC(O)COc1cccc(-c2nc(N[C@H]3CCOC[C@@H]3F)c(C)c(-c3c(C)noc3C)n2)c1` (stereo partly drawn) [Example 279-1a] reads more than 5.30.
`CNCC(O)COc1cccc(-c2nc(N3CCN(C(=O)OC)[C@@H](C)C3)cc(N(C)C3CCOCC3)n2)c1` (stereo partly drawn) [Example 581-1a] had a pIC50 of 4.70 to 5.00.
Take `Cc1noc(C)c1-c1nc(-c2cccc(OCC(O)CN)c2)nc(NC2CCOCC2)c1C` (stereo not drawn) [Example 54-1a]: the pIC50 was more than 5.30.
With `CNCC(O)COc1cc(O)cc(-c2nc(NC3CCOCC3)c(C)c(-c3c(C)noc3C)n2)c1` (stereo not drawn) [Example 76-1a], the pIC50 was 4.70 to 5.00.
Then `CNCC(O)COc1cccc(-c2nc(-c3c(C)noc3C)c(C)c(N3CCN(C(=O)OCCOC)CC3)n2)c1` (stereo not drawn) [Example 134-1a], with more than 5.30; and `CNC[C@@H](O)COc1ccc(Cl)c(-c2nc(-c3c(C)noc3C)c(C)c(N3CCc4nc(C)sc4C3)n2)c1` [Example 141-3], with more than 5.30.
Then `CNC[C@H](O)COc1ccc(Cl)c(-c2nc(NC3CCN(C(=O)OC)CC3)c(C)c(-c3c(C)noc3C)n2)c1` [Example 89-3], with more than 5.30; and `CNCC(O)COc1cccc(-c2nc(N[C@@H]3CCOC3)c(C)c(N3CCN(CC(F)F)CC3)n2)c1` (stereo partly drawn) [Example 458-1a], with more than 5.30.
The result for `CNCC(O)COc1cccc(-c2nc(NC[C@H]3COCCN3C(=O)N(C)C)c(C)c(-c3c(C)noc3C)n2)c1` (stereo partly drawn) [Example 258-1a] reads 5.00 to 5.30; that for `CNC[C@@H](O)COc1ccc(F)c(-c2nc(-c3c(C)noc3C)cc(N3CC4(CCOCC4)C3)n2)c1` [Example 277-3], more than 5.30; that for `CNC[C@@H](O)COc1ccc(Cl)c(-c2nc(-c3c(C)noc3C)c(C)c(N3CCc4ccncc43)n2)c1` [Example 174-3], more than 5.30.
`CNC[C@H](O)COc1ccc(Cl)c(-c2nc(-c3c(C)noc3C)c(C)c(N3CC4(CCN(C5CC5)CC4)C3)n2)c1` [Example 55-3] showed a pIC50 of more than 5.30.
The result for `CCOC(=O)N1CCCC(Nc2nc(-c3cccc(OCC(O)CNC)c3)nc(-c3c(C)noc3C)c2C)C1` (stereo not drawn) [Example 190-1a] reads more than 5.30; that for `CNCC(O)COc1cc(N)cc(-c2nc(NC3CCOCC3)c(C)c(-c3c(C)noc3C)n2)c1` (stereo not drawn) [Example 74-1a], 5.00 to 5.30; that for `CNCC(O)COc1cccc(-c2nc(OC3CCOCC3)c(C)c(-c3c(C)noc3C)n2)c1` (stereo not drawn) [Example 181-1a], more than 5.30.
The result for `CNC[C@@H](O)COc1ccc(Cl)c(-c2nc(OC[C@H]3CCCO3)c(C)c(-c3c(C)noc3C)n2)c1` [Example 116-3] reads more than 5.30.
Then `CNCC(O)COc1cccc(-c2nc(NC3CN(C(=O)OC)C3)c(C)c(-c3c(C)noc3C)n2)c1` (stereo not drawn) [Example 275-1a], with 4.70 to 5.00; and `CNC[C@@H](O)COc1ccc(Cl)c(-c2nc(N[C@H]3C[C@H](OC)C3)c(Cl)c(-c3c(C)noc3C)n2)c1` [Example 217-3], with more than 5.30.
In turn, `CNCC(O)COc1cccc(-c2nc(NC[C@H]3COCCN3CC(F)F)c(C)c(-c3c(C)noc3C)n2)c1` (stereo partly drawn) [Example 274-1a] showed a pIC50 of more than 5.30.
Then `CNCC(O)COc1cc(Cl)cc(-c2nc(N(C)C3CCOCC3)c(C)c(-n3cccn3)n2)c1` (stereo not drawn) [Example 618-1a], with 4.70 to 5.00; and `CNC[C@H](O)COc1ccc(Cl)c(-c2nc(NC3CCN(C(=O)OC)CC3)c(Cl)c(-c3c(C)noc3C)n2)c1` [Example 305-1a], with more than 5.30; and `CCN(CC)c1nc(-c2cccc(OCC(O)CNC)c2)nc(N2CCOCC2)c1C` (stereo not drawn) [Example 682-1a], with not above 4.70.
Then `CNCC(O)COc1cccc(-c2nc(-c3c(C)noc3C)cc(N3CCN(C)[C@@H](C)C3)n2)c1` (stereo partly drawn) [Example 93-1a], with more than 5.30.
For the molecule `CNC[C@@H](O)COc1ccc(Cl)c(-c2nc(-c3c(C)noc3C)c(F)c(N3Cc4nccnc4C3)n2)c1` [Example 297-3], the pIC50 was more than 5.30.
`CNCC(O)COc1cccc(-c2nc(N[C@@H]3CCOC3)c(C)c(N3CCN(C4CC4)CC3)n2)c1` (stereo partly drawn) [Example 436-1a]: the negative logarithm of the IC50 (pIC50) is more than 5.30.
The result for `CNC[C@@H](O)COc1ccc(Cl)c(-c2nc(-c3c(C)noc3C)c(C)c(N3CC(CO)(CO)C3)n2)c1` [Example 163-3] reads 5.00 to 5.30; that for `CNC[C@@H](O)COc1ccc(Cl)c(-c2nc(N[C@@H]3CCO[C@H](C)C3)c(Cl)c(-c3c(C)noc3C)n2)c1` [Example 155-3], more than 5.30.
Then `CNCC(O)COc1cccc(-c2nc(OCC3CCN(C4CC4)CC3)c(C)c(-c3c(C)noc3C)n2)c1` (stereo not drawn) [Example 303-1a], with more than 5.30.
The result for `CNC[C@@H](O)COc1ccc(Cl)c(-c2nc(-c3c(C)noc3C)c(C)c(N3Cc4cnn(CC(F)(F)F)c4C3)n2)c1` [Example 265-3] reads more than 5.30.
Take `CNCC(O)COc1ccc(Cl)c(-c2nc(NC3CC(O)(C(F)(F)F)C3)c(C)c(-c3c(C)noc3C)n2)c1` (stereo not drawn) [Example 38-3]: the pIC50 was more than 5.30.
The molecule `CNCC(O)COc1ccc(Cl)c(-c2nc(NCC3CCCCO3)c(C)c(-c3c(C)noc3C)n2)c1` (stereo not drawn) [Example 31-3] showed a pIC50 of more than 5.30.
The result for `CCOC(=O)N1CC[C@@H](Nc2nc(-c3cc(OC[C@H](O)CNC)ccc3Cl)nc(-c3c(C)noc3C)c2Cl)C1` [Example 129-3] reads more than 5.30.
The molecule `CCC(=O)NC1CN(c2nc(-c3cccc(OCC(O)CNC)c3)nc(-c3c(C)noc3C)c2C)C1` (stereo not drawn) [Example 14-3] gave a pIC50 of more than 5.30.
In turn, `CNCC(O)COc1cccc(-c2nc(-c3c(C)noc3C)cc(N(CCOC)CCOC)n2)c1` (stereo not drawn) [Example 52-1] gave a pIC50 of 4.70 to 5.00.
Then `CNCC(O)COc1cccc(-c2nc(N[C@@H]3CCOC3)c(C)c(N3CCN(C(C)=O)[C@@H](C)C3)n2)c1` (stereo partly drawn) [Example 396-1a], with 4.70 to 5.00; and `CNCC(O)COc1cccc(-c2nc(NC3CCN(C(=O)OC)CC3)c(Cl)c(-c3c(C)noc3C)n2)c1` (stereo not drawn) [Example 202-1a], with more than 5.30.
For `CNC[C@@H](O)COc1ccc(Cl)c(-c2nc(NC3CCN(C4CC4)CC3(F)F)c(C)c(-c3c(C)noc3C)n2)c1` (stereo partly drawn) [Example 292-3], the pIC50 is more than 5.30.
Then `CNC[C@@H](O)COc1ccc(Cl)c(-c2nc(N[C@H]3CC[C@@H](OC)C3)c(C)c(-c3c(C)noc3C)n2)c1` [Example 212-3], with more than 5.30.

The values above are taken from patent US10633389B2, “CARM1 inhibitors and uses thereof” (Epizyme, Inc., priority 2013, dated 2020).
